Consider 2 compounds from patent US10744137B1, “Liquisolid tablet containing combined dose of tadalafil and dapoxetine” (King Abdulaziz University, priority 2020, dated 2020).

In brackets after ≈: the same amount, converted by molar mass. Like-named read-outs stand apart in the source and are kept apart here.

Data set [1] is described as follows: Solubility studies of TDL and DPX in nonvolatile solvents and distilled water. The format is physicochemical. On the procedure: Solubility studies of TDL and DPX were determined in various nonvolatile solvents separately as described previously with full details in the literature (Al-Subaie et al., 2015)(Aldawsari et al., 2018)(El-Say et al., 2019). The solvents used in this study were Span® 80, Tween® 80, PEG 400, PEG 200, Labrasol®, Kolliphor® EL, glycerin and distilled water were used.

For data set [2] the following is noted: DPX, low and variable (El-Say et al., 2019); cited from earlier work.

`CN(C)[C@@H](CCOc1cccc2ccccc12)c1ccccc1` [DPX, dapoxetine]: the solubility in data set [1] (in distilled water, read-out: Solubility of DPX) was 35.6 mg/mL (≈ 117 mM); in data set [1] (oil or lipid, in Labrasol, read-out: Solubility of DPX) it was 57.7 mg/mL (≈ 189 mM). The oral bioavailability in data set [2] is reported as 15-76%.

Take `CN1CC(=O)N2[C@H](c3ccc4c(c3)OCO4)c3[nH]c4ccccc4c3C[C@@H]2C1=O` [TDL, tadalafil]: the solubility in data set [1] (in distilled water, read-out: Solubility of TDL) came to 0.049 mg/mL (≈ 0.126 mM); in data set [1] (organic solvent or mixture, in PEG 200, read-out: Solubility of TDL), 10.1 mg/mL (≈ 25.9 mM).
